Measurements published in ChEMBL document CHEMBL6078687 (J Med Chem, 2024).

Tested on: not listed separately
Test: in vitro
Settings: human, liver microsomes
Work on `C[C@]12CC[C@H]3[C@@H](CCC4=CC(=O)CC[C@@]43C)[C@@H]1CC[C@@H]2O` [TESTOSTERONE] yielded a remaining at 2 h of 4.1%.
Work on `CC(C)NCC(O)COc1cccc2ccccc12` (configuration not stated) [PROPRANOLOL] yielded a remaining at 2 h of 0.5%.

Tested on: not listed separately
Test: Cytotoxicity against CEF cells incubated for 48 hrs by CCK8 assay
Format: toxicity, cell-based, Gallus gallus
Settings: chicken
With `CCC(CC)O[C@@H]1C=C(C(=O)O)C[C@H](N)[C@H]1NC(C)=O` [OSELTAMIVIR CARBOXYLATE] the CC50 at 48 h was greater than 200000 nM.
Compound `CCC(CC)O[C@@H]1C=C(C(=O)O)C[C@H](NCc2ccc(OCc3ccc(B(O)O)cc3)cc2F)[C@H]1NC(C)=O` has a CC50 at 48 h greater than 500000 nM.
`CCC(CC)O[C@@H]1C=C(C(=O)O)C[C@H](NCc2ccc(OCc3ccc(B(O)O)cc3)cc2C)[C@H]1NC(C)=O` gave a CC50 at 48 h greater than 200000 nM.
Compound `CCC(CC)O[C@@H]1C=C(C(=O)O)C[C@H](NCc2c(C)cc(OCc3cccc(B(O)O)c3)cc2C)[C@H]1NC(C)=O` has a CC50 at 48 h greater than 200000 nM.
Work on `CCC(CC)O[C@@H]1C=C(C(=O)O)C[C@H](NCc2ccc(OCc3cccc(B(O)O)c3)cc2F)[C@H]1NC(C)=O` yielded a CC50 at 48 h of 170000 nM.
Compound `CCC(CC)O[C@@H]1C=C(C(=O)O)C[C@H](NCc2ccc(OCc3ccc(B(O)O)cc3)cc2Cl)[C@H]1NC(C)=O` has a CC50 at 48 h greater than 200000 nM.

Tested on: not listed separately
Test: Inhibition of neuraminidase in Influenza A virus A/Babol/36/2005 H3N2 using MUNANA as substrate incubated for 40 mins by […] based assay
Settings: not given
Compound `CCC(CC)O[C@@H]1C=C(C(=O)O)C[C@H](NCc2cccc(C(=O)Nc3ccc(B(O)O)cc3)c2)[C@H]1NC(C)=O` has an IC50 of 6660 nM.
`CCC(CC)O[C@@H]1C=C(C(=O)O)C[C@H](NCc2ccc(OCc3ccc(B(O)O)cc3)c(C)c2)[C@H]1NC(C)=O` gave an IC50 of 16700 nM.
`CCC(CC)O[C@@H]1C=C(C(=O)O)C[C@H](N)[C@H]1NC(C)=O` [OSELTAMIVIR CARBOXYLATE] showed an IC50 of 9 nM.
For `CCC(CC)O[C@@H]1C=C(C(=O)O)C[C@H](NCc2ccc(OCc3ccc(B(O)O)cc3)cc2F)[C@H]1NC(C)=O`, the IC50 was 400 nM.
Compound `CCC(CC)O[C@@H]1C=C(C(=O)O)C[C@H](NCc2ccc(OCc3ccc(B(O)O)cc3)cc2C)[C@H]1NC(C)=O` has an IC50 of 110 nM.
Work on `CCC(CC)O[C@@H]1C=C(C(=O)O)C[C@H](NCc2c(C)cc(OCc3cccc(B(O)O)c3)cc2C)[C@H]1NC(C)=O` yielded an IC50 of 650 nM.
Compound `CCC(CC)O[C@@H]1C=C(C(=O)O)C[C@H](NCc2ccc(OCc3cccc(B(O)O)c3)cc2F)[C@H]1NC(C)=O` has an IC50 of 1430 nM.
`CCC(CC)O[C@@H]1C=C(C(=O)O)C[C@H](NCc2ccc(OCc3ccc(B(O)O)cc3)cc2Cl)[C@H]1NC(C)=O` gave an IC50 of 120 nM.

Tested on: not listed separately
Test: Cytotoxicity against MDCK cells incubated for 48 hrs by MTT assay
Format: toxicity, cell-based, Canis lupus familiaris
Settings: dog
`CCC(CC)O[C@@H]1C=C(C(=O)O)C[C@H](N)[C@H]1NC(C)=O` [OSELTAMIVIR CARBOXYLATE] gave an EC50 at 48 h greater than 250000 nM.
`CCC(CC)O[C@@H]1C=C(C(=O)O)C[C@H](NCc2ccc(OCc3ccc(B(O)O)cc3)cc2F)[C@H]1NC(C)=O` gave an EC50 at 48 h greater than 250000 nM.
In the case of `CCC(CC)O[C@@H]1C=C(C(=O)O)C[C@H](NCc2ccc(OCc3ccc(B(O)O)cc3)cc2C)[C@H]1NC(C)=O`, the EC50 at 48 h is reported as greater than 250000 nM.
Compound `CCC(CC)O[C@@H]1C=C(C(=O)O)C[C@H](NCc2c(C)cc(OCc3cccc(B(O)O)c3)cc2C)[C@H]1NC(C)=O` has an EC50 at 48 h greater than 250000 nM.
With `CCC(CC)O[C@@H]1C=C(C(=O)O)C[C@H](NCc2ccc(OCc3cccc(B(O)O)c3)cc2F)[C@H]1NC(C)=O` the EC50 at 48 h was greater than 250000 nM.
`CCC(CC)O[C@@H]1C=C(C(=O)O)C[C@H](NCc2ccc(OCc3ccc(B(O)O)cc3)cc2Cl)[C@H]1NC(C)=O` showed an EC50 at 48 h greater than 250000 nM.

Tested on: not listed separately
Test: Inhibition of neuraminidase in Influenza A virus A/Goose/Guangdong/SH7/2013 H5N1 using MUNANA as substrate incubated for 40 mins by […] based assay
Settings: not given
`CCC(CC)O[C@@H]1C=C(C(=O)O)C[C@H](NCc2cccc(C(=O)Nc3ccc(B(O)O)cc3)c2)[C@H]1NC(C)=O` gave an IC50 of 1050 nM.
Work on `CCC(CC)O[C@@H]1C=C(C(=O)O)C[C@H](NCc2ccc(OCc3ccc(B(O)O)cc3)c(C)c2)[C@H]1NC(C)=O` yielded an IC50 of 8060 nM.
In the case of `CCC(CC)O[C@@H]1C=C(C(=O)O)C[C@H](N)[C@H]1NC(C)=O` [OSELTAMIVIR CARBOXYLATE], the IC50 is reported as 61 nM.
With `CCC(CC)O[C@@H]1C=C(C(=O)O)C[C@H](NCc2ccc(OCc3ccc(B(O)O)cc3)cc2F)[C@H]1NC(C)=O` the IC50 was 87 nM.
With `CCC(CC)O[C@@H]1C=C(C(=O)O)C[C@H](NCc2ccc(OCc3ccc(B(O)O)cc3)cc2C)[C@H]1NC(C)=O` the IC50 was 74 nM.
With `CCC(CC)O[C@@H]1C=C(C(=O)O)C[C@H](NCc2c(C)cc(OCc3cccc(B(O)O)c3)cc2C)[C@H]1NC(C)=O` the IC50 was 24 nM.
Work on `CCC(CC)O[C@@H]1C=C(C(=O)O)C[C@H](NCc2ccc(OCc3cccc(B(O)O)c3)cc2F)[C@H]1NC(C)=O` yielded an IC50 of 38 nM.
In the case of `CCC(CC)O[C@@H]1C=C(C(=O)O)C[C@H](NCc2ccc(OCc3ccc(B(O)O)cc3)cc2Cl)[C@H]1NC(C)=O`, the IC50 is reported as 22 nM.

Tested on: not listed separately
Test: in vitro
Settings: human, liver microsomes
Remark: another data set of the same source
`CCC(CC)O[C@@H]1C=C(C(=O)O)C[C@H](N)[C@H]1NC(C)=O` [OSELTAMIVIR CARBOXYLATE] showed a microsomal CLint at 2 h of 13.1 µL/min/mg.

Tested on: Influenza A virus
Test: microbe, parasite or virus in culture
Settings: A/Goose/Jiangsu/1306/2014 H5N8, CEF, 48 h
With `CCC(CC)O[C@@H]1C=C(C(=O)O)C[C@H](N)[C@H]1NC(C)=O` [OSELTAMIVIR CARBOXYLATE] the EC50 was 8640 nM.
Work on `CCC(CC)O[C@@H]1C=C(C(=O)O)C[C@H](NCc2ccc(OCc3ccc(B(O)O)cc3)cc2F)[C@H]1NC(C)=O` yielded an EC50 of 3970 nM.
`CCC(CC)O[C@@H]1C=C(C(=O)O)C[C@H](NCc2ccc(OCc3ccc(B(O)O)cc3)cc2C)[C@H]1NC(C)=O` showed an EC50 of 3550 nM.
For `CCC(CC)O[C@@H]1C=C(C(=O)O)C[C@H](NCc2c(C)cc(OCc3cccc(B(O)O)c3)cc2C)[C@H]1NC(C)=O`, the EC50 was 9120 nM.
For `CCC(CC)O[C@@H]1C=C(C(=O)O)C[C@H](NCc2ccc(OCc3cccc(B(O)O)c3)cc2F)[C@H]1NC(C)=O`, the EC50 was 6880 nM.
Work on `CCC(CC)O[C@@H]1C=C(C(=O)O)C[C@H](NCc2ccc(OCc3ccc(B(O)O)cc3)cc2Cl)[C@H]1NC(C)=O` yielded an EC50 greater than 40000 nM.

Tested on: Influenza A virus
Test: microbe, parasite or virus in culture
Settings: A/Goose/Guangdong/SH7/2013 H5N1, CEF, 48 h
`CCC(CC)O[C@@H]1C=C(C(=O)O)C[C@H](N)[C@H]1NC(C)=O` [OSELTAMIVIR CARBOXYLATE] showed an EC50 of 1790 nM.
In the case of `CCC(CC)O[C@@H]1C=C(C(=O)O)C[C@H](NCc2ccc(OCc3ccc(B(O)O)cc3)cc2F)[C@H]1NC(C)=O`, the EC50 is reported as 1590 nM.
`CCC(CC)O[C@@H]1C=C(C(=O)O)C[C@H](NCc2ccc(OCc3ccc(B(O)O)cc3)cc2C)[C@H]1NC(C)=O` showed an EC50 of 6390 nM.
In the case of `CCC(CC)O[C@@H]1C=C(C(=O)O)C[C@H](NCc2c(C)cc(OCc3cccc(B(O)O)c3)cc2C)[C@H]1NC(C)=O`, the EC50 is reported as 2540 nM.
`CCC(CC)O[C@@H]1C=C(C(=O)O)C[C@H](NCc2ccc(OCc3cccc(B(O)O)c3)cc2F)[C@H]1NC(C)=O` gave an EC50 of 6270 nM.
`CCC(CC)O[C@@H]1C=C(C(=O)O)C[C@H](NCc2ccc(OCc3ccc(B(O)O)cc3)cc2Cl)[C@H]1NC(C)=O` gave an EC50 of 3570 nM.

Tested on: not listed separately
Test: Metabolic stability in human liver microsomes assessed as compound remaining incubated for 60 mins by LC-MS/MS analysis
Format: ADME, Microsome
Settings: 1 h
For `CCC(CC)O[C@@H]1C=C(C(=O)O)C[C@H](N)[C@H]1NC(C)=O` [OSELTAMIVIR CARBOXYLATE], the Stability was 114.6%.

Tested on: Influenza A virus
Test: Antiviral activity against Influenza A virus A/WSN/67/05 H3N2 infected in MDCK cells assessed as inhibition of plaque formation measured after 2 days
Settings: A/WSN/67/05 H3N2, MDCK, 48 h
In the case of `CCC(CC)O[C@@H]1C=C(C(=O)O)C[C@H](N)[C@H]1NC(C)=O` [OSELTAMIVIR CARBOXYLATE], the EC50 is reported as 750 nM.
Work on `CCC(CC)O[C@@H]1C=C(C(=O)O)C[C@H](NCc2ccc(OCc3ccc(B(O)O)cc3)cc2F)[C@H]1NC(C)=O` yielded an EC50 of 18500 nM.
Compound `CCC(CC)O[C@@H]1C=C(C(=O)O)C[C@H](NCc2ccc(OCc3ccc(B(O)O)cc3)cc2C)[C@H]1NC(C)=O` has an EC50 of 10600 nM.
With `CCC(CC)O[C@@H]1C=C(C(=O)O)C[C@H](NCc2c(C)cc(OCc3cccc(B(O)O)c3)cc2C)[C@H]1NC(C)=O` the EC50 was greater than 100000 nM.
Work on `CCC(CC)O[C@@H]1C=C(C(=O)O)C[C@H](NCc2ccc(OCc3cccc(B(O)O)c3)cc2F)[C@H]1NC(C)=O` yielded an EC50 greater than 100000 nM.
`CCC(CC)O[C@@H]1C=C(C(=O)O)C[C@H](NCc2ccc(OCc3ccc(B(O)O)cc3)cc2Cl)[C@H]1NC(C)=O` gave an EC50 of 4230 nM.

Tested on: Influenza A virus
Test: microbe, parasite or virus in culture
Settings: A/PR/8/34 H1N1, MDCK, 48 h
With `CCC(CC)O[C@@H]1C=C(C(=O)O)C[C@H](N)[C@H]1NC(C)=O` [OSELTAMIVIR CARBOXYLATE] the EC50 was 56 nM.
Compound `CCC(CC)O[C@@H]1C=C(C(=O)O)C[C@H](NCc2ccc(OCc3ccc(B(O)O)cc3)cc2F)[C@H]1NC(C)=O` has an EC50 of 29 nM.
For `CCC(CC)O[C@@H]1C=C(C(=O)O)C[C@H](NCc2ccc(OCc3ccc(B(O)O)cc3)cc2C)[C@H]1NC(C)=O`, the EC50 was 11 nM.
In the case of `CCC(CC)O[C@@H]1C=C(C(=O)O)C[C@H](NCc2c(C)cc(OCc3cccc(B(O)O)c3)cc2C)[C@H]1NC(C)=O`, the EC50 is reported as 14 nM.
`CCC(CC)O[C@@H]1C=C(C(=O)O)C[C@H](NCc2ccc(OCc3cccc(B(O)O)c3)cc2F)[C@H]1NC(C)=O` showed an EC50 of 26 nM.
For `CCC(CC)O[C@@H]1C=C(C(=O)O)C[C@H](NCc2ccc(OCc3ccc(B(O)O)cc3)cc2Cl)[C@H]1NC(C)=O`, the EC50 was 30 nM.

Tested on: not listed separately
Test: in vitro
Settings: human, liver microsomes
Remark: another data set of the same source
Compound `CCC(CC)O[C@@H]1C=C(C(=O)O)C[C@H](N)[C@H]1NC(C)=O` [OSELTAMIVIR CARBOXYLATE] has a CLint scaled at 2 h of 11.8 mL/min/kg.
